Data taken from US20080146617A1, “Methods of treating inflammatory diseases” (Roche Palo Alto LLC, priority 2006, published 2008).
Read-outs that look alike come from different tables or passages of the source.

Tests used:
Test in all cases: KinomeScan kinase profiling
Format in all cases: binding
FGFR2 = biological target: T1, FGFR2 (Homo sapiens, UniProt P21802)
T1 construct: purchased Ambit Biosciences (San Diego, Calif.)

KIT = biological target: T2, KIT (Homo sapiens, UniProt P10721)
T2 construct: purchased Ambit Biosciences (San Diego, Calif.)

BMX = biological target: T3, BMX (Homo sapiens, UniProt P51813)
T3 construct: purchased Ambit Biosciences (San Diego, Calif.)
Source text: (§1) The selectivity of a given CK1δ, CK1ε or CK1δ-CK1ε inhibitor compound can be determined by testing the compound against a panel of known kinases. An example of such a kinase profiling technology is the “KinomeScan” from Ambit Biosciences in which compounds can be screened for their modulatory activities against more than 200 known kinases.

CAMKK1 = biological target: T4, CAMKK1 (Homo sapiens, UniProt Q8N5S9)
T4 construct: purchased Ambit Biosciences (San Diego, Calif.)
Source text: as §1

PDGFRB = biological target: T5, PDGFRB (Homo sapiens, UniProt P09619)
T5 construct: purchased Ambit Biosciences (San Diego, Calif.)
Source text: as §1

CSNK1G1 = biological target: T6, CSNK1G1 (Homo sapiens, UniProt Q9HCP0)
T6 construct: purchased Ambit Biosciences (San Diego, Calif.)
Source text: as §1

CLK4 = biological target: T7, CLK4 (Homo sapiens, UniProt Q9HAZ1)
T7 construct: purchased Ambit Biosciences (San Diego, Calif.)
Source text: as §1

PTK2 = biological target: T8, PTK2 (Homo sapiens, UniProt Q05397)
T8 construct: purchased Ambit Biosciences
Source text: as §1

STK10 = biological target: T9, STK10 (Homo sapiens, UniProt O94804)
T9 construct: purchased Ambit Biosciences
Source text: as §1

PIM2 = biological target: T10, PIM2 (Homo sapiens, UniProt Q9P1W9)
T10 construct: purchased Ambit Biosciences (San Diego, Calif.)
Source text: as §1

HCK = biological target: T11, HCK (Homo sapiens, UniProt P08631)
T11 construct: purchased Ambit Biosciences (San Diego, Calif.)
Source text: as §1

NEK2 = biological target: T12, NEK2 (Homo sapiens, UniProt P51955)
T12 construct: purchased Ambit Biosciences (San Diego, Calif.)
Source text: as §1

STK17B = biological target: T13, STK17B (Homo sapiens, UniProt O94768)
T13 construct: purchased Ambit Biosciences
Source text: as §1

ITK = biological target: T14, ITK (Homo sapiens, UniProt Q08881)
T14 construct: purchased Ambit Biosciences (San Diego, Calif.)
Source text: as §1

FES = biological target: T15, FES (Homo sapiens, UniProt P07332)
T15 construct: purchased Ambit Biosciences (San Diego, Calif.)
Source text: as §1

TIE2 = biological target: T16, TIE2 (Homo sapiens, UniProt Q02763)
T16 construct: purchased Ambit Biosciences
Source text: as §1

PHKG2 = biological target: T17, PHKG2 (Homo sapiens, UniProt P15735)
T17 construct: purchased Ambit Biosciences (San Diego, Calif.)
Source text: as §1

STK17A = biological target: T18, STK17A (Homo sapiens, UniProt Q9UEE5)
T18 construct: purchased Ambit Biosciences
Source text: as §1

JNK1 = biological target: T19, JNK1 (Homo sapiens, UniProt P45983)
T19 construct: purchased Ambit Biosciences (San Diego, Calif.)
Source text: as §1

MKNK2 = biological target: T20, MKNK2 (Homo sapiens, UniProt Q9HBH9)
T20 construct: purchased Ambit Biosciences (San Diego, Calif.)
Source text: as §1

JAK1(Kin.Dom1) = biological target: T21, JAK1(Kin.Dom1) (Homo sapiens, UniProt P23458)
T21 construct: JAK1(Kin.Dom1); purchased Ambit Biosciences (San Diego, Calif.)
Source text: as §1

ULK3(mouse) = biological target: T22, ULK3(mouse) (Mus musculus, UniProt Q3U3Q1)
T22 construct: purchased Ambit Biosciences (San Diego, Calif.)
Source text: as §1

TNIK = biological target: T23, TNIK (Homo sapiens, UniProt Q9UKE5)
T23 construct: purchased Ambit Biosciences
Source text: as §1

MYLK2 = biological target: T24, MYLK2 (Homo sapiens, UniProt Q9H1R3)
T24 construct: purchased Ambit Biosciences (San Diego, Calif.)
Source text: as §1

ABL1 = biological target: T25, ABL1 (Homo sapiens, UniProt P00519)
T25 construct: purchased Ambit Biosciences (San Diego, Calif.)
Source text: as §1

LYN = biological target: T26, LYN (Homo sapiens, UniProt P07948)
T26 construct: purchased Ambit Biosciences (San Diego, Calif.)
Source text: as §1

STK16 = biological target: T27, STK16 (Homo sapiens, UniProt O75716)
T27 construct: purchased Ambit Biosciences
Source text: as §1

ACK1 = biological target: T28, ACK1 (Homo sapiens, UniProt Q07912)
T28 construct: purchased Ambit Biosciences (San Diego, Calif.)
Source text: as §1

NEK9 = biological target: T29, NEK9 (Homo sapiens, UniProt Q8TD19)
T29 construct: purchased Ambit Biosciences (San Diego, Calif.)
Source text: as §1

STK36 = biological target: T30, STK36 (Homo sapiens, UniProt Q9NRP7)
T30 construct: purchased Ambit Biosciences
Source text: as §1

TXK = biological target: T31, TXK (Homo sapiens, UniProt P42681)
T31 construct: purchased Ambit Biosciences
Source text: as §1

STK11 = biological target: T32, STK11 (Homo sapiens, UniProt Q15831)
T32 construct: purchased Ambit Biosciences
Source text: as §1

CLK3 = biological target: T33, CLK3 (Homo sapiens, UniProt P49761)
T33 construct: purchased Ambit Biosciences (San Diego, Calif.)
Source text: as §1

CLK1 = biological target: T34, CLK1 (Homo sapiens, UniProt P49759)
T34 construct: purchased Ambit Biosciences (San Diego, Calif.)
Source text: as §1

CSK = biological target: T35, CSK (Homo sapiens, UniProt P41240)
T35 construct: purchased Ambit Biosciences (San Diego, Calif.)
Source text: as §1

SRC = biological target: T36, SRC (Homo sapiens, UniProt P12931)
T36 construct: purchased Ambit Biosciences
Source text: as §1

PHKG1 = biological target: T37, PHKG1 (Homo sapiens, UniProt Q16816)
T37 construct: purchased Ambit Biosciences (San Diego, Calif.)

EPHB4 = biological target: T38, EPHB4 (Homo sapiens, UniProt P54760)
T38 construct: purchased Ambit Biosciences (San Diego, Calif.)

JNK2 = biological target: T39, JNK2 (Homo sapiens, UniProt P45984)
T39 construct: purchased Ambit Biosciences (San Diego, Calif.)

p38-beta = biological target: T40, p38-beta (Homo sapiens, UniProt Q15759)
T40 construct: purchased Ambit Biosciences (San Diego, Calif.)

Measured: inhibition at 10 µM

T24 sequence (Q9H1R3 whole entry): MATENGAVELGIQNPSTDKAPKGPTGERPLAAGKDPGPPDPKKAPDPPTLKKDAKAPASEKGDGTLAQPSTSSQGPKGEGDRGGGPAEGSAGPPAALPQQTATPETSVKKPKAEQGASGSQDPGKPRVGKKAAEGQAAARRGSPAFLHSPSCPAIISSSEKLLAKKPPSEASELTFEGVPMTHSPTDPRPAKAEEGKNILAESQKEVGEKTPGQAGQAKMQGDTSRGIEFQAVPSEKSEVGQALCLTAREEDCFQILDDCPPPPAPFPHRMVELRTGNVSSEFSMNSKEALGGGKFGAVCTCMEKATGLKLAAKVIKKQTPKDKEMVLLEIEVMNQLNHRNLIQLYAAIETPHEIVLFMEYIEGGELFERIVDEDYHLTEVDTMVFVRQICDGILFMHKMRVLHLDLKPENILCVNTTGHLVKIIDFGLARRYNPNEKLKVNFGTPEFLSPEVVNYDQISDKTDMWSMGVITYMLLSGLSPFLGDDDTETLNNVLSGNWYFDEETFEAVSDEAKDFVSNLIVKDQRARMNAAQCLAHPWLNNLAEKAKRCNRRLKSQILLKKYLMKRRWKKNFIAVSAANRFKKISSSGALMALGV
T29 sequence (Q8TD19 whole entry): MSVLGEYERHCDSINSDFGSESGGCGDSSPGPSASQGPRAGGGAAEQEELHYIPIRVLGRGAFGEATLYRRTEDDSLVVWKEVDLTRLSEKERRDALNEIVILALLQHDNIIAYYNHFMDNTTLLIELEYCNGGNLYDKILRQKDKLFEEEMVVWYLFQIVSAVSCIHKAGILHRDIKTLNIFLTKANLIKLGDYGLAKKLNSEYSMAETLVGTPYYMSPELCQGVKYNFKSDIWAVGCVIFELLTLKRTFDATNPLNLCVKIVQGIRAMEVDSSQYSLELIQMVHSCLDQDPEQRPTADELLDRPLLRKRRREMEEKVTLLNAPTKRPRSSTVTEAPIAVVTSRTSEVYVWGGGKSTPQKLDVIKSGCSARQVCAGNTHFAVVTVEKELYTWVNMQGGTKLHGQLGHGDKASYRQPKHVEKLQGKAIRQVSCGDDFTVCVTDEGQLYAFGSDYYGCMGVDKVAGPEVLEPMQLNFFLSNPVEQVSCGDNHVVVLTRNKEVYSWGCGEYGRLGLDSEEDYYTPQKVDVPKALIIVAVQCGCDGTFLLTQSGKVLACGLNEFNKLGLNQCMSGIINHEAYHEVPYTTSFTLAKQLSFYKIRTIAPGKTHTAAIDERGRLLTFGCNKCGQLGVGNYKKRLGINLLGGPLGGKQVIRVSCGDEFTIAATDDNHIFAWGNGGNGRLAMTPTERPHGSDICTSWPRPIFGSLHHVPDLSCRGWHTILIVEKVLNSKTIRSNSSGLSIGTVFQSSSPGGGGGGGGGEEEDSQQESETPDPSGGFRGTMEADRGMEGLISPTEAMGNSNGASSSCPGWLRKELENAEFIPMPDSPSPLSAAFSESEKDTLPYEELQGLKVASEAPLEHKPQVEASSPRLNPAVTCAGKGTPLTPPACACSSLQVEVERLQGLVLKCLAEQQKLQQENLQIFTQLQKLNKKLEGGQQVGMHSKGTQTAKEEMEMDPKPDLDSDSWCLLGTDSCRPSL
T40 sequence (Q15759 whole entry): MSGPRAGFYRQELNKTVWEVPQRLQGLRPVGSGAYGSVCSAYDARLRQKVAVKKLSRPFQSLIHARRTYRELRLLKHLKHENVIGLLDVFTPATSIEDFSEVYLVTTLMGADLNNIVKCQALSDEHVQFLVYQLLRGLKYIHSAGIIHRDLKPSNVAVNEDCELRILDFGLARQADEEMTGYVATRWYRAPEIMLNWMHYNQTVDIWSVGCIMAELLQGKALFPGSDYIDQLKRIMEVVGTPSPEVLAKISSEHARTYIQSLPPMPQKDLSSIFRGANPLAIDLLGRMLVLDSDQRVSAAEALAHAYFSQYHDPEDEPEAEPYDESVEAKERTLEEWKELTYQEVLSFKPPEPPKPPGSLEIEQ
T20 sequence (Q9HBH9 whole entry): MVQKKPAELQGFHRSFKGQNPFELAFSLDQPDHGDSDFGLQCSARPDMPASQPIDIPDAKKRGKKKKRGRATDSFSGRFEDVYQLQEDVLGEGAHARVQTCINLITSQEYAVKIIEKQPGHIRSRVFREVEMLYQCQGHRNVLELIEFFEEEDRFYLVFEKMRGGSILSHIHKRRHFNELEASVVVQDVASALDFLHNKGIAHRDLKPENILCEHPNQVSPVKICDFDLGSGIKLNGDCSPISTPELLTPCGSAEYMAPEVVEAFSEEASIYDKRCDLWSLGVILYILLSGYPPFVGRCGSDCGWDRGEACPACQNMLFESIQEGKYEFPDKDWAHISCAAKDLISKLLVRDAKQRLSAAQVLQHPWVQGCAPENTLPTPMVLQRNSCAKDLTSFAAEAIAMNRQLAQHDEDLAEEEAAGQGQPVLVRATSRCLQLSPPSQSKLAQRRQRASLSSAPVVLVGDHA
T31 sequence (P42681 whole entry): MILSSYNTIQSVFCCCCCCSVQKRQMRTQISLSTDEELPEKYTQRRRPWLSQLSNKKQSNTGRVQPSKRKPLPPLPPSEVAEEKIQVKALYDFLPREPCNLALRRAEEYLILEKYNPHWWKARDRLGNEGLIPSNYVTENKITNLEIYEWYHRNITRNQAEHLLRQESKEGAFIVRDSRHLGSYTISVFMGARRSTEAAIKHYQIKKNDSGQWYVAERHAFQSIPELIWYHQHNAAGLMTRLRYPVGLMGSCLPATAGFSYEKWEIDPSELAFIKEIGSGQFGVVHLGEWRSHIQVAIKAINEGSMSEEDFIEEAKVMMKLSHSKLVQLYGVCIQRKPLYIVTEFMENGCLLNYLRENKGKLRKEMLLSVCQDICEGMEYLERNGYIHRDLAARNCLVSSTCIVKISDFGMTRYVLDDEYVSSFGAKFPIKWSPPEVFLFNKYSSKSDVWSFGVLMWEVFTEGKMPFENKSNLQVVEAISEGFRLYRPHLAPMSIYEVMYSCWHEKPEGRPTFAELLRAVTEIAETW
T35 sequence (P41240 whole entry): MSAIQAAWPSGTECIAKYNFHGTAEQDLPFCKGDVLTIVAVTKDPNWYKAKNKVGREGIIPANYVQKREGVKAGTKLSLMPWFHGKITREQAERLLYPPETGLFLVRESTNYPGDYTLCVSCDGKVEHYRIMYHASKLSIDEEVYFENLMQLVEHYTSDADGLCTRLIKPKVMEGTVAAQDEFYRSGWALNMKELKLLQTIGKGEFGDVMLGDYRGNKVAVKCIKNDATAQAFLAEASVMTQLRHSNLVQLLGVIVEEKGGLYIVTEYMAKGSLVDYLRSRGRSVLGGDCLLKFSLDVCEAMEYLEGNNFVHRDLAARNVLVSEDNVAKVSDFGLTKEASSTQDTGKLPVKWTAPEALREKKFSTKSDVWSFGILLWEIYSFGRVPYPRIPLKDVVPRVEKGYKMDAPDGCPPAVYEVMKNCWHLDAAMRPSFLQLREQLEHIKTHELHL
T28 sequence (Q07912 whole entry): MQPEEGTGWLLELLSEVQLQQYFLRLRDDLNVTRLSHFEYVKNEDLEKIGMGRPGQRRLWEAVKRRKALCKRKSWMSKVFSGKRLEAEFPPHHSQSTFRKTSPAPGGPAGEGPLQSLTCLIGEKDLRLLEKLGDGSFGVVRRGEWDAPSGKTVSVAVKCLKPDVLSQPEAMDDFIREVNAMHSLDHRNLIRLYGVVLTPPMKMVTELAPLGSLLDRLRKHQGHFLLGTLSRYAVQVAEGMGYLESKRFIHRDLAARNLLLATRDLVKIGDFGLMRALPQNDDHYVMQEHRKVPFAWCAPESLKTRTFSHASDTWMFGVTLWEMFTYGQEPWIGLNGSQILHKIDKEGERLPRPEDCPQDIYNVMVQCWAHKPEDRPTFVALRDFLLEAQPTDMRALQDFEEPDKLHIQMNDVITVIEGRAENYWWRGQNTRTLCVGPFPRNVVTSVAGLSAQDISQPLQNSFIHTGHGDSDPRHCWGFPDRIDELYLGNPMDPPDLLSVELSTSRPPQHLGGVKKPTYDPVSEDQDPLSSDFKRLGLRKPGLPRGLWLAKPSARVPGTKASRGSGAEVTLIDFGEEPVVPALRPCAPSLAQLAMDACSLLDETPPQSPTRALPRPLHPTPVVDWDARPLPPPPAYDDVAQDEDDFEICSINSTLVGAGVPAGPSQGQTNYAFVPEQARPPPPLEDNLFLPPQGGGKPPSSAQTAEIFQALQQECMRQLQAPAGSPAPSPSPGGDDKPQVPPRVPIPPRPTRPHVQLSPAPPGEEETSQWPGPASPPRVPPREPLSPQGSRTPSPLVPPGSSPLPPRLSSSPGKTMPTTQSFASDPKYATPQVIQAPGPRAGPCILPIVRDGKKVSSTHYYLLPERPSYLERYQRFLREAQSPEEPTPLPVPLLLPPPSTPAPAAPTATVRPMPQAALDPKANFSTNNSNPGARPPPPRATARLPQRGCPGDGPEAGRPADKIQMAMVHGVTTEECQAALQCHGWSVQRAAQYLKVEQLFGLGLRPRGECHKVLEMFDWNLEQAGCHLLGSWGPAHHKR
T12 sequence (P51955 whole entry): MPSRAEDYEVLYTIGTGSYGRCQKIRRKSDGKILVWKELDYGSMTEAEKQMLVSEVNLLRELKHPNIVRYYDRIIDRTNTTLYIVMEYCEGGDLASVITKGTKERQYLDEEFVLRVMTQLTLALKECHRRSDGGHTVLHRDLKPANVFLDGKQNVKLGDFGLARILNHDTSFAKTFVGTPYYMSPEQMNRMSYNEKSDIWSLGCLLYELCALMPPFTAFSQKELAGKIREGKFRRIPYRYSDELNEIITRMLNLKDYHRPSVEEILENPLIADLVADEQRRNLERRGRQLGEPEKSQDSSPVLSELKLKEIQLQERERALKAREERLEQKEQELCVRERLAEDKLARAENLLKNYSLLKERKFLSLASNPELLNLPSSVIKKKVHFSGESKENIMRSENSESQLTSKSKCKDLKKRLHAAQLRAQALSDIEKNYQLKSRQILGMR

NC(=O)c1ccc(-c2nc(-c3ccc4c(c3)OCO4)c(-c3ccccn3)[nH]2)cc1 [SB431542, 4-(4-benzo-[1,3]dioxol-5-yl-5-pyridin-2-yl-1H-imidazol-2-yl)benzamide]
< 50%: FGFR2 | KIT | BMX | CAMKK1 | PDGFRB | CSNK1G1; 10 μM, CSNK1G1, read-out: % Inhibition | CLK4 | PTK2 | STK10 | PIM2 | HCK | NEK2 | STK17B | ITK | FES | TIE2 | PHKG2 | STK17A | JNK1 | MKNK2 | JAK1(Kin.Dom1) | ULK3(mouse) | TNIK | MYLK2 | ABL1 | LYN | STK16 | ACK1 | NEK9 | STK36 | TXK | STK11 | CLK3 | CLK1 | CSK | SRC | PHKG1 | EPHB4 | JNK2 | p38-beta

NC(=O)c1ccc(-c2nc(-c3ccc4c(c3)OCCO4)c(-c3ccccn3)[nH]2)cc1 [D4476, 4-[4-(2,3-Dihydro-benzo[1,4]dioxin-6-yl)-5-pyridin-2-yl-1H-imidazol-2-yl]benzamide]
< 50%: FGFR2 | KIT | BMX | CAMKK1 | PDGFRB | CSNK1G1 | CLK4 | PTK2 | STK10 | PIM2 | HCK | NEK2 | STK17B | ITK | FES | TIE2 | PHKG2 | STK17A | JNK1 | MKNK2 | JAK1(Kin.Dom1) | ULK3(mouse) | TNIK | MYLK2 | ABL1 | LYN | STK16 | ACK1 | NEK9 | STK36 | TXK | STK11 | CLK3 | CLK1 | CSK | SRC | PHKG1 | EPHB4 | JNK2 | p38-beta
